Data published in paper PMC4904262 (ACS Medicinal Chemistry Letters, 2016).

Assays:
Conditions in all cases: 1 µM, ATP at Km
ALK = ALK (Homo sapiens, UniProt Q9UM73)
ARK5 = ARK5 (Homo sapiens, UniProt O60285)
CDK2/CYCLINA = CDK2/CYCLINA (Homo sapiens, UniProt P24941)
CDK3/CYCLINE = CDK3/CYCLINE (Homo sapiens, UniProt Q00526)
CK2ALPHA2 = CK2ALPHA2 (Homo sapiens, UniProt P19784)
CSK = CSK (Homo sapiens, UniProt P41240)
DRAK1 = DRAK1 (Homo sapiens, UniProt Q9UEE5)
EPHA5 = EPHA5 (Homo sapiens, UniProt P54756)
HIPK3 = HIPK3 (Homo sapiens, UniProt Q9H422)
IGF-1R = IGF-1R (Homo sapiens, UniProt P08069)
IKKBETA = IKKBETA (Homo sapiens, UniProt O14920)
IRR = IRR (Homo sapiens, UniProt P14616)
IRAK1 = IRAK1 (Homo sapiens, UniProt P51617)
ITK = ITK (Homo sapiens, UniProt Q08881)
JNK2ALPHA2 = JNK2ALPHA2 (Homo sapiens, UniProt P45984)
JNK3 = JNK3 (Homo sapiens, UniProt P53779)
MAPK2 = MAPK2 (Homo sapiens, UniProt P28482)
MKK7BETA = MKK7BETA (Homo sapiens, UniProt O14733)
MRCKBETA = MRCKBETA (Homo sapiens, UniProt Q9Y5S2)
MSK1 = MSK1 (Homo sapiens, UniProt O75582)
MSSK1 = MSSK1 (Homo sapiens, UniProt Q9UPE1)
NEK6 = NEK6 (Homo sapiens, UniProt Q9HC98)
PAK4 = PAK4 (Homo sapiens, UniProt O96013)
PDGFRBETA = PDGFRBETA (Homo sapiens, UniProt P09619)
PKCALPHA = PKCALPHA (Homo sapiens, UniProt P17252)
PKG1ALPHA = PKG1ALPHA (Homo sapiens, UniProt Q13976)
RIPK2 = RIPK2 (Homo sapiens, UniProt O43353)
SAPK2A = SAPK2A (Homo sapiens, UniProt Q16539)
SAPK3 = SAPK3 (Homo sapiens, UniProt P53778)
SGK2 = SGK2 (Homo sapiens, UniProt Q9HBY8)
SIK = SIK (Homo sapiens, UniProt P57059)
WNK2 = WNK2 (Homo sapiens, UniProt Q9Y3S1)
WNK3 = WNK3 (Homo sapiens, UniProt Q9BYP7)
YES = YES (Homo sapiens, UniProt P07947)
CK1GAMMA1 = CK1GAMMA1 (Homo sapiens, UniProt Q9HCP0)
PHKGAMMA2 = PHKGAMMA2 (Homo sapiens, UniProt P15735)
TAO2 = TAO2 (Homo sapiens, UniProt Q9UL54)
GCK = GCK (Homo sapiens, UniProt Q12851)
HASPIN = HASPIN (Homo sapiens, UniProt Q8TF76)
TAO3 = TAO3 (Homo sapiens, UniProt Q9H2K8)
CLK2 = CLK2 (Homo sapiens, UniProt P49760)
MTOR/FKBP12 = MTOR/FKBP12 (Homo sapiens, UniProt P42345)
TEC ACTIVATED = TEC ACTIVATED (Homo sapiens, UniProt P42680)
PI3 KINASE (P85A) = PI3 KINASE (P85A) (Homo sapiens, UniProt P42336)

Sequence of EPHA5 (P54756 25-1037): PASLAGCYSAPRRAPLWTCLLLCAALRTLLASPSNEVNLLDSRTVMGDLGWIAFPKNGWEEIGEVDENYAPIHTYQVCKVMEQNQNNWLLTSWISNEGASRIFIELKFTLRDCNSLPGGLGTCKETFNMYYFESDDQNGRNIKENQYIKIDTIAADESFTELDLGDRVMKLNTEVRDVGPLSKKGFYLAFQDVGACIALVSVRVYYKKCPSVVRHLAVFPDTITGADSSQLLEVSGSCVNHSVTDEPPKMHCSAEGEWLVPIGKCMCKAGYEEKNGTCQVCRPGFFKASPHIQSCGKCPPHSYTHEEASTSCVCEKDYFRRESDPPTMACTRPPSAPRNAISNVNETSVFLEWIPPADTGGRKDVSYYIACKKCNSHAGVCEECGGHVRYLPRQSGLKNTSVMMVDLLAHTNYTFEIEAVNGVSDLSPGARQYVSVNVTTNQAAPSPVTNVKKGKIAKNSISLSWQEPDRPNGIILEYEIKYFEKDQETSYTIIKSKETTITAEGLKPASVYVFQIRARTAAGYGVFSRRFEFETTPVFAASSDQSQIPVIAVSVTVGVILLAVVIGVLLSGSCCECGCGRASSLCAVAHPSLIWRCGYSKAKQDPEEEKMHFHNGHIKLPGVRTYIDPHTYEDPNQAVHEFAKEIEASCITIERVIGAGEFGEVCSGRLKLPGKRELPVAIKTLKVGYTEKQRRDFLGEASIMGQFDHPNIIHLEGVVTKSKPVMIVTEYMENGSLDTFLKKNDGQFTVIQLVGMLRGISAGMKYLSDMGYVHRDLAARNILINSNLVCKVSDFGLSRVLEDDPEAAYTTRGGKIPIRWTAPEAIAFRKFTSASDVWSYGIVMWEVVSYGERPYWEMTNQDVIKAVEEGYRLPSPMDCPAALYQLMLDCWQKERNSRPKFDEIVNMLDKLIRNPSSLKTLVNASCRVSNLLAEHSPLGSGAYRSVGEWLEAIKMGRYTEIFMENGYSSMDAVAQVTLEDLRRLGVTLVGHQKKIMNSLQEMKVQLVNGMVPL
Sequence of ITK (Q08881 whole entry): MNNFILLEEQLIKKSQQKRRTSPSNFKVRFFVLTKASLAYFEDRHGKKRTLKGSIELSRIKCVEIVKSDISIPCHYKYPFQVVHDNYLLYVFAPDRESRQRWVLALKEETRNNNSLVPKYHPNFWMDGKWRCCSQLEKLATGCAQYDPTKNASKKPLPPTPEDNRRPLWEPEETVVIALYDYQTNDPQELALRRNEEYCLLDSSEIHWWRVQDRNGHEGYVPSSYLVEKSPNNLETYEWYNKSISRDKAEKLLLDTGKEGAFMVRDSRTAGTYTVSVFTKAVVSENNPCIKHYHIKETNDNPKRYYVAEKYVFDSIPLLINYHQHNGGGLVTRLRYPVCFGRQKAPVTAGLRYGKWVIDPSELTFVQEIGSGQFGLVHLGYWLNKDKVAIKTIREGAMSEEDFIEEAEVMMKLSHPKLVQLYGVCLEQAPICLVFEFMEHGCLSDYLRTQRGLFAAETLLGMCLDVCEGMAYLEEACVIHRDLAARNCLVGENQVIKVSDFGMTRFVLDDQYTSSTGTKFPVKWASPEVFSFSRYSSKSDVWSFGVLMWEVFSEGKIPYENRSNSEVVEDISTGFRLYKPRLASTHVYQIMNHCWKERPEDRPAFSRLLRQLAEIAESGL
Sequence of HASPIN (Q8TF76 whole entry): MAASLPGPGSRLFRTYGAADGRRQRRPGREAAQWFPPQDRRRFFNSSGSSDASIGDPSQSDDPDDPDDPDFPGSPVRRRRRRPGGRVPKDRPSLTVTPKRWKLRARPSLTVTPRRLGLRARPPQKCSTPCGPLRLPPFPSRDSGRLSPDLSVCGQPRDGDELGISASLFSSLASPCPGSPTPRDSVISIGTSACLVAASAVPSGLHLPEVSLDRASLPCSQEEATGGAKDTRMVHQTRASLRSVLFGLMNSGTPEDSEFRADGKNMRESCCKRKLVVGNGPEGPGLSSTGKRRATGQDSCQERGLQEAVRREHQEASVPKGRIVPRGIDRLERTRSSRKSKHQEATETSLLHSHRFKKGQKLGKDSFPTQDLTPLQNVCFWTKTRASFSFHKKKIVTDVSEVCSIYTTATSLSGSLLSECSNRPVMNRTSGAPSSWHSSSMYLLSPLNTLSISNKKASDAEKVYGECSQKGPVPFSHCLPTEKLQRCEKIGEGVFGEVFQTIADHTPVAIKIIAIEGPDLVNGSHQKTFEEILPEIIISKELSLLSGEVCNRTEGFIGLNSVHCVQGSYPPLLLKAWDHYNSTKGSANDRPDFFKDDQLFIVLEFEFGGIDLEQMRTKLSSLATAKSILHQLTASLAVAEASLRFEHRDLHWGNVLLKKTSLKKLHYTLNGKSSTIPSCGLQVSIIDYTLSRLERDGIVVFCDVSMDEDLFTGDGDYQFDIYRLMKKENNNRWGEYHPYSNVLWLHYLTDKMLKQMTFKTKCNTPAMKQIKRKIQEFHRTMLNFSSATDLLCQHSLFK
Sequence of WNK2 (Q9Y3S1 whole entry): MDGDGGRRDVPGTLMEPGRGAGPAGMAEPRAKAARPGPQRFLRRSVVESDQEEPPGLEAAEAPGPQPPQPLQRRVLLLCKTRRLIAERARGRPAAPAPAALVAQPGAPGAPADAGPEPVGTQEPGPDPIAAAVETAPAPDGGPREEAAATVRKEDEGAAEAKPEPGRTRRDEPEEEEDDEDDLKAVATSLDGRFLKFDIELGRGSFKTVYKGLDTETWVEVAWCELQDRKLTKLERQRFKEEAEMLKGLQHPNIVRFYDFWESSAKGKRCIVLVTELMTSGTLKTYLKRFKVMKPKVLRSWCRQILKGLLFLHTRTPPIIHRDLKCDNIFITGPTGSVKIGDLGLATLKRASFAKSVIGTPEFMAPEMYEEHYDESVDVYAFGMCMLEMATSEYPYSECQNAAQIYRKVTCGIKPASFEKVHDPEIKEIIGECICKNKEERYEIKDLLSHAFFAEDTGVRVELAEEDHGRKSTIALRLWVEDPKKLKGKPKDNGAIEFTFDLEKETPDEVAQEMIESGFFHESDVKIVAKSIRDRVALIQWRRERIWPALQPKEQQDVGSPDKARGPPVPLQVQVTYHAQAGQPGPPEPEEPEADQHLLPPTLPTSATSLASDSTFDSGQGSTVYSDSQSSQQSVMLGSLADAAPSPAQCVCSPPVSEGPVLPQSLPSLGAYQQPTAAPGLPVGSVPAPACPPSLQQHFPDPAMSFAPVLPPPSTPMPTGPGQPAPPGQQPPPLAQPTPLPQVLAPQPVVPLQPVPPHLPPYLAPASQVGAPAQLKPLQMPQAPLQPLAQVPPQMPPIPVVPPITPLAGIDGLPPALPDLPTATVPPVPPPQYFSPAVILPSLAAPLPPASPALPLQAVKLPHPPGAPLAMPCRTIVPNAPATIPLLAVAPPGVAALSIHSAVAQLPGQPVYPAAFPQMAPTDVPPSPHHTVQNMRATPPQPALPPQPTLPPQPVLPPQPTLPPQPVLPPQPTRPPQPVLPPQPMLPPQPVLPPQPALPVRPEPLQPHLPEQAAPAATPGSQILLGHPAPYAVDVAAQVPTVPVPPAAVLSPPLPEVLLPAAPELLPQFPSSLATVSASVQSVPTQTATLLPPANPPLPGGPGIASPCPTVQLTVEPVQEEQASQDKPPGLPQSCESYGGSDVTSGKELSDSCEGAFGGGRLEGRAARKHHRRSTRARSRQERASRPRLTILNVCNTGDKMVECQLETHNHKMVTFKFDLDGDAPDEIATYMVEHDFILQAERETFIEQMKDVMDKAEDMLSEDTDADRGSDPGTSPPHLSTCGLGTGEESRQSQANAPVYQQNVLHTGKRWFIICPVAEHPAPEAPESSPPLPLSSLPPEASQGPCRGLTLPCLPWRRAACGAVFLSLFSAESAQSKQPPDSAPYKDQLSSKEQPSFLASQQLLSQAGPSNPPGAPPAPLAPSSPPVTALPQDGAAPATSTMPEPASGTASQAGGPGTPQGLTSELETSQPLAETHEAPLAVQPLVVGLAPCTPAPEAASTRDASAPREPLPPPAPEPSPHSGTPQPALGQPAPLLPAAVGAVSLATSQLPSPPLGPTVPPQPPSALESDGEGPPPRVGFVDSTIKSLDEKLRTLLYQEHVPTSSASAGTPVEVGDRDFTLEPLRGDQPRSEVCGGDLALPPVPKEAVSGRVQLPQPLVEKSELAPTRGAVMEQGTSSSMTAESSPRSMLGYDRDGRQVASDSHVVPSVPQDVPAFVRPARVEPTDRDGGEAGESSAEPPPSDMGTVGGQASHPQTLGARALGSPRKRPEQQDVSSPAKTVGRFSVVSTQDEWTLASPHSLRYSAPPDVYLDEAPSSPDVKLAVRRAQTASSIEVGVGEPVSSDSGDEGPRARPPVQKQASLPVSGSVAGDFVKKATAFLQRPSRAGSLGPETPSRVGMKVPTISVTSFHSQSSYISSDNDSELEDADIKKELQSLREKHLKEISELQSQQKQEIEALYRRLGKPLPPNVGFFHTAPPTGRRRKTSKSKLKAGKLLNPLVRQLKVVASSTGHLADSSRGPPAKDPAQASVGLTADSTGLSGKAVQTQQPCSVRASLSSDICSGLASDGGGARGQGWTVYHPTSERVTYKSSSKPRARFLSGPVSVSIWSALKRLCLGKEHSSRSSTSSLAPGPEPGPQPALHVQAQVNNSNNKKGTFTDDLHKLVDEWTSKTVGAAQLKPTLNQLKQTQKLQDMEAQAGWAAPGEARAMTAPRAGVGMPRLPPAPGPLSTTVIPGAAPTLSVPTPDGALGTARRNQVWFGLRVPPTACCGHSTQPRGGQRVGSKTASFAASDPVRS
Sequence of SAPK2A (Q16539 whole entry): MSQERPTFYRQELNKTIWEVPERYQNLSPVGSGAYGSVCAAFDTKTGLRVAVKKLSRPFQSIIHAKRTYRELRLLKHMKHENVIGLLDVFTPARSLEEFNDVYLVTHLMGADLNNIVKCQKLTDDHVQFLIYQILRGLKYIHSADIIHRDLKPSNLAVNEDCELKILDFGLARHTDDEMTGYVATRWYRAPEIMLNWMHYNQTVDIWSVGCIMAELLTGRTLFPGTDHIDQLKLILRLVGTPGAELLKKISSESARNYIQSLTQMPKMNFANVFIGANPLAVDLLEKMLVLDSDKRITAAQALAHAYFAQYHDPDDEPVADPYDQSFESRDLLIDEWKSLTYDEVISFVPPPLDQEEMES

COC1CN(C(=O)c2ccc3c(N)ncc(-c4ccc(-c5cnn(C)c5)cc4)c3n2)C1 [Compound 51]
percentage effect (ALK): -20%
percentage effect (ARK5): 2%
percentage effect (CDK2/CYCLINA): 5%
percentage effect (CDK3/CYCLINE): 4%
percentage effect (CK2ALPHA2): 0%
percentage effect (CSK): 21%
percentage effect (DRAK1): 1%
percentage effect (EPHA5): -1%
percentage effect (HIPK3): 6%
percentage effect (IGF-1R): 19%
percentage effect (IKKBETA): -14%
percentage effect (IRR): -2%
percentage effect (IRAK1): 8%
percentage effect (ITK): -6%
percentage effect (JNK2ALPHA2): -6%
percentage effect (JNK3): -33%
percentage effect (MAPK2): 6%
percentage effect (MKK7BETA): 9%
percentage effect (MRCKBETA): -4%
percentage effect (MSK1): -2%
percentage effect (MSSK1): 7%
percentage effect (NEK6): -2%
percentage effect (PAK4): 4%
percentage effect (PDGFRBETA): 2%
percentage effect (PKCALPHA): -10%
percentage effect (PKG1ALPHA): 0%
percentage effect (RIPK2): -16%
percentage effect (SAPK2A): -4%
percentage effect (SAPK3): -11%
percentage effect (SGK2): -46%
percentage effect (SIK): -3%
percentage effect (WNK2): 18%
percentage effect (WNK3): -9%
percentage effect (YES): -22%
percentage effect (CK1GAMMA1): -8%
percentage effect (PHKGAMMA2): 10%
percentage effect (TAO2): -5%
percentage effect (GCK): -26%
percentage effect (HASPIN): -7%
percentage effect (TAO3): -16%
percentage effect (CLK2): -18%
percentage effect (MTOR/FKBP12): -4%
percentage effect (TEC ACTIVATED): -18%
percentage effect (PI3 KINASE (P85A)): -12%

COC1CN(C(=O)c2ccc3c(N)ncc(-c4ccc(-c5cnn(C)c5)cc4)c3c2)C1 [Compound 59]
percentage effect (ALK): -30%
percentage effect (ARK5): -14%
percentage effect (CDK2/CYCLINA): -5%
percentage effect (CDK3/CYCLINE): -5%
percentage effect (CK2ALPHA2): 13%
percentage effect (CSK): 7%
percentage effect (DRAK1): -18%
percentage effect (EPHA5): 3%
percentage effect (HIPK3): 4%
percentage effect (IGF-1R): 9%
percentage effect (IKKBETA): 8%
percentage effect (IRR): -5%
percentage effect (IRAK1): 14%
percentage effect (ITK): 2%
percentage effect (JNK2ALPHA2): 2%
percentage effect (JNK3): -8%
percentage effect (MAPK2): -4%
percentage effect (MKK7BETA): -23%
percentage effect (MRCKBETA): 13%
percentage effect (MSK1): 0%
percentage effect (MSSK1): 13%
percentage effect (NEK6): -34%
percentage effect (PAK4): 10%
percentage effect (PDGFRBETA): 17%
percentage effect (PKCALPHA): -2%
percentage effect (PKG1ALPHA): 17%
percentage effect (RIPK2): -5%
percentage effect (SAPK2A): -9%
percentage effect (SAPK3): -11%
percentage effect (SGK2): 38%
percentage effect (SIK): -5%
percentage effect (WNK2): -3%
percentage effect (WNK3): 4%
percentage effect (YES): -18%
percentage effect (CK1GAMMA1): -8%
percentage effect (PHKGAMMA2): 2%
percentage effect (TAO2): -7%
percentage effect (GCK): 1%
percentage effect (HASPIN): -12%
percentage effect (TAO3): -6%
percentage effect (CLK2): -3%
percentage effect (MTOR/FKBP12): 4%
percentage effect (TEC ACTIVATED): 13%
percentage effect (PI3 KINASE (P85A)): 0%
